Results reported in article PMC2725430 (Journal of medicinal chemistry, 2009).

What was measured:
[1] = Cytotoxicity by neutral red dye uptake in 2.2.15 cells; format: cell-based; conditions: human, 2.2.15 cells (confluent cultures, HBV-replicating)
HCV RNA replicon = HCV RNA replicon assay in Huh7 ET cells; format: cell-based; conditions: in comparison to the parent compound 2
HBV mutant rtM204V = experiment: Intracellular HBV DNA replication assay, transient transfection, rtM204V; format: cell-based; conditions: Hepatitis B virus, 96 h
HBV mutant rtL180M = experiment: Intracellular HBV DNA replication assay, transient transfection, rtL180M; format: cell-based; conditions: Hepatitis B virus, 96 h
HBV mutant rtM204I = experiment: Intracellular HBV DNA replication assay, transient transfection, rtM204I; format: cell-based; conditions: Hepatitis B virus, 96 h
HBV WT = experiment: Intracellular HBV DNA replication assay, transient transfection, WT; format: cell-based; conditions: Hepatitis B virus, 96 h
wild type HBV = experiment: HBV antiviral assay in 2.2.15 cells, HBV DNA by quantitative blot hybridization; format: cell-based; conditions: read-out: Anti-HCV activity EC50(µM) virion, extracellular virion HBV DNA, nine consecutive daily doses
2.2.15 cells = experiment: Cytotoxicity by neutral red dye uptake in 2.2.15 cells; format: cell-based; conditions: read-out: Cytotoxicity IC50; 2.2.15 cells, neutral red dye uptake

## Nc1ccn([C@@H]2CS[C@H](CO)O2)c(=O)n1 [Compound 3TC, lamivudine, reference compound]
[1]
  IC50 at 9 days: > 2000 µM

## Nc1ncnc2c1c(I)cn2[C@@H]1C=C(CO)[C@@H](O)[C@H]1O [Compound 15, (-)-(1R, 2S, 3R)-4-Amino-5-iodo-7-[2,3-dihydroxy-4-hydroxymethyl-4-cyclopenten-1-yl] -7H-pyrrolo[2,3-d] pyrimidine]
[1]
  IC50 at 9 days: > 300 µM

## Nc1ncnc2c1c(F)cn2[C@@H]1C=C(CO)[C@@H](O)[C@H]1O [Compound 12, (-)-(1R, 2S, 3R)-4-Amino-5-fluoro-7-[2,3-dihydroxy-4-hydroxymethyl-4-cyclopenten-1-yl]-7H-pyrrolo[2,3-d]pyrimidine]
HCV RNA replicon
  anti-HCV activity (in words): devoid of anti-HCV activity

## C#Cc1cn([C@@H]2C=C(CO)[C@@H](O)[C@H]2O)c2ncnc(N)c12 [Compound 24, (-)-(1R, 2S, 3R)-4-Amino-5-ethynyl-7-[2,3-dihydroxy-4-hydroxymethyl-4-cyclopenten-1-yl]-7H-pyrrolo[2,3-d]pyrimidine]
HBV mutant rtM204V
  EC50: 2100 nM
HBV mutant rtL180M
  EC50: 2000 nM
HBV mutant rtM204I
  EC50: 3000 nM
[1]
  IC50 at 9 days: > 300 µM
HBV WT
  EC50: 2500 nM

## C=Cc1cn([C@@H]2C=C(CO)[C@@H](O)[C@H]2O)c2ncnc(N)c12 [Compound 22, (-)-(1R, 2S, 3R)-4-Amino-5-ethenyl-7-[2,3-dihydroxy-4-hydroxymethyl-4-cyclopenten-1-yl]-7H-pyrrolo[2,3-d]pyrimidine]
[1]
  IC50 at 9 days: > 300 µM

## 4-amino-7-(2,3-dihydroxy-4-hydroxymethyl-4-cyclopenten-1-yl)-7H-pyrrolo[2,3-d]pyrimidine [Compound 2]
Wild type HBV
  EC50: 0.6 µM
2.2.15 cells
  IC50: 22 µM
Huh7 ET cells
  IC50: > 100 µM
